Earlier results, collected in US8877808B2, “Protection against skin diseases by aurin tricarboxylic acid and its derivatives” (Aurin Biotech Inc., priority 2012, dated 2014).

Target: C9 binding to C5b678 (Homo sapiens, UniProt P02748)
Details: Lee et al. 2012a

Chain of C9 binding to C5b678 (P02748 22-559): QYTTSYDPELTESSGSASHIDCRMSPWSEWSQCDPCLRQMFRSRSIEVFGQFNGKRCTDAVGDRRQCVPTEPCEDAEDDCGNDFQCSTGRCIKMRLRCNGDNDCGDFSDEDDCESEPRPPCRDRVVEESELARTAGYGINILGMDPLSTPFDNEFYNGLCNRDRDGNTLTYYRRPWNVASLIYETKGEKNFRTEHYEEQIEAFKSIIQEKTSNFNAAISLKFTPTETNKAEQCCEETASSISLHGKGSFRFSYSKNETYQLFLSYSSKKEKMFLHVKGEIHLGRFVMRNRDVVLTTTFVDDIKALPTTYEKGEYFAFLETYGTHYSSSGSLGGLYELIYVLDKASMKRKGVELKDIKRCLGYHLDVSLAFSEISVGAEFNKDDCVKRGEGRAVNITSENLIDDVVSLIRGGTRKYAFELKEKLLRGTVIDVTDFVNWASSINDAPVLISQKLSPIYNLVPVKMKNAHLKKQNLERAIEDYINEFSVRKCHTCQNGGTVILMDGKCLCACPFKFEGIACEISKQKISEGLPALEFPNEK

Row | Substance | block of classical pathway at C9 binding to C5b678, formation of the MAC (C5b-9)
1 | aurin hexacarboxylic acid [AHA] | block classical pathway formation at the stage of C9 binding to C5b678
2 | aurin quadracarboxylic acid [AQA] | block classical pathway formation at the stage of C9 binding to C5b678
